Consider one compound from PMC8157459, “Exploring the anti-HIV-1 reverse transcriptase, anti-inflammatory, anti-cancer activities and cytotoxicity of two fermented commercial herbal concoctions sold in Limpopo Province of South Africa” (BMC Complementary Medicine and Therapies, 2021).

The target in this experiment is T1, human sPLA2 (Type V) (Homo sapiens, UniProt P39877).
T1 construct: gene PLA2G5
T1 sequence (P39877 21-138): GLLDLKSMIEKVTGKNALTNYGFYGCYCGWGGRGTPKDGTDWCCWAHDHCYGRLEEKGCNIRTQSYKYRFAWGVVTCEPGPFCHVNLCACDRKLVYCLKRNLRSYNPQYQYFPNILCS
Kind of experiment: diheptanoyl thio-PC hydrolysis, DTNB colorimetric. In kind it is biochemical. As to conditions: read-out: sPLA2 (IC50 μg/mL) (converted). The source says: diheptanoyl thio-PC hydrolysis, DTNB colorimetric on human sPLA2 (Type V)

`CCCCCCCCCCCCCCCCSC[C@H](COP(=O)([O-])OCC[N+](C)(C)C)NC(=O)CCCCCCCCCCCCCCC` [Thioetheramide-PC]: the IC50 is 2070 nM.
